Reference: patent US11884661B2, “3-substituted propionic acids as αV integrin inhibitors” (BRISTOL-MYERS SQUIBB COMPANY, priority 2016, dated 2024)
pIC50: −log10 of the molar value.

These compounds were tested against T1, human αVβ6 (Homo sapiens, UniProt P06756+P18564) (assay: human αVβ6 HTRF binding assay). Conditions: recombinant human αVβ6 integrin, FITC-conjugated fibronectin.
T1 construct: purchased R & D systems 3817-AV
Procedure: All binding assays used the HTRF (homogeneous time resolved fluorescence) technology from Cisbio International, therefore all assays are described as HTRF binding assays. The assay results for the Examples are listed above together with the characterization data. The HTRF binding assays are established for the following integrins: human αVβ6, human αVβ1, human αVβ3, human αVβ5, and human αVβ8. All assays used the following assay buffer: 20 mM Tris, pH 7.4, 1 mM MgCl2, 1 mM MnCl2, 0.01% Tween 20, and 0.01% BSA. Alternatively, a SPA-based assay was used for evaluation of receptor binding.
The following describes the components and a representative procedure for the human αVβ6 HTRF binding assay: Recombinant human αVβ6 Integrin (R & D systems, 3817-AV) was biotinylated. Biotinylated human αVβ6 Integrin was added to assay vessel at a final concentration of 1.25 nM. FITC-conjugated fibronectin (Cytoskeleton, FNR02) was then added at the final concentration of 5 nM. The mixture was centrifuged at 600 rpm for three minutes using Thermo Fisher Heraeus Multifuge X3 centrifuge and then incubated at RT for an hour. Streptavidin Terbium (Cisbio international 610STLB) was then added at the final concentration of 0.625 nM. The resulting mixture was centrifuged at 600 rpm for three minutes using Thermo Fisher Heraeus Multifuge X3 centrifuge and then incubated at room temperature overnight in dark before reading HTRF signals.

T1 sequence (P06756 31-992 limits assumed): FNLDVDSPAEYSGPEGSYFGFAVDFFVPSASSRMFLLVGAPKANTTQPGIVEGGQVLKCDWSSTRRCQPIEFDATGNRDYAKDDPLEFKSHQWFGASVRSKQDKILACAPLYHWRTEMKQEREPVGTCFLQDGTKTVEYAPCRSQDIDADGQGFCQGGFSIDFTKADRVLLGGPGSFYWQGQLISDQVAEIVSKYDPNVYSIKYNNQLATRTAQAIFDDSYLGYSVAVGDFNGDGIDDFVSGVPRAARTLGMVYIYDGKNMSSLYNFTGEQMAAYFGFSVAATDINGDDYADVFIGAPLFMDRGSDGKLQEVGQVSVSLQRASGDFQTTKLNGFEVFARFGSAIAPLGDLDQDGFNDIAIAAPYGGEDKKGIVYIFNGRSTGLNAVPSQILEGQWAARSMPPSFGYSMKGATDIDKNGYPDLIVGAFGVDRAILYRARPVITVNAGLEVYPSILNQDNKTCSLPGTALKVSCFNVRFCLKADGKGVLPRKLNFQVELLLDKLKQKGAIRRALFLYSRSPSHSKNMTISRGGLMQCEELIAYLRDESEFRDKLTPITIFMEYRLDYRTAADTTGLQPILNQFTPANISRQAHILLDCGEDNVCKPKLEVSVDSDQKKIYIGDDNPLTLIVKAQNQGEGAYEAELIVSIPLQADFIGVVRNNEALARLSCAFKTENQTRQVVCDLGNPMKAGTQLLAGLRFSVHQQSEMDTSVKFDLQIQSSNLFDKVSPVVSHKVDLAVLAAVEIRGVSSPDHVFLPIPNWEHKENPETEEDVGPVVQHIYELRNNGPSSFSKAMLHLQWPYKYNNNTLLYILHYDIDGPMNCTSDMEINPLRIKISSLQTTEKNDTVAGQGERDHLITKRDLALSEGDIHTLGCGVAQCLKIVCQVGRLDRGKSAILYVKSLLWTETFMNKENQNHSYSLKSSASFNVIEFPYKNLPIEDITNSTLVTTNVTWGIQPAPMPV
T1 sequence (P18564 22-707 limits assumed): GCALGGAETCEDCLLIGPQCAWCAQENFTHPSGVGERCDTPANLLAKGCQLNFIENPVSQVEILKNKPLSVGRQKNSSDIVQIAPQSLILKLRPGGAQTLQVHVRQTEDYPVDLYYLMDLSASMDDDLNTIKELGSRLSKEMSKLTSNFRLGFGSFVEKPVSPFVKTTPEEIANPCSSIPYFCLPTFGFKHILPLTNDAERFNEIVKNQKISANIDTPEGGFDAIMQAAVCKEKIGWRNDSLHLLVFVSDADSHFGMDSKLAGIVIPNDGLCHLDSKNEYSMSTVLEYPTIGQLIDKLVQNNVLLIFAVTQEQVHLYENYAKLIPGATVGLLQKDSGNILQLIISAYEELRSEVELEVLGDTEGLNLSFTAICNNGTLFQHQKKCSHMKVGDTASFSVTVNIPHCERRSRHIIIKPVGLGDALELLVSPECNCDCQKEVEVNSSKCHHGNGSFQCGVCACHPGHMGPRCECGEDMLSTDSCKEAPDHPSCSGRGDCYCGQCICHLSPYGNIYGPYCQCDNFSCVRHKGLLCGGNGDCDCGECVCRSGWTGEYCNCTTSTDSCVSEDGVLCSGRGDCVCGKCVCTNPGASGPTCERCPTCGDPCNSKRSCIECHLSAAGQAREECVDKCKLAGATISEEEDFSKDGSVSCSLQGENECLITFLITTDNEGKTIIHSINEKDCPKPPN

SMILES	pIC50
O=C(O)CC(c1cc(Cl)cc(Cl)c1)c1cnn(CCCc2ccc3c(n2)NCCC3)c1 (racemic) [Example 26, (±)-3-(3,5-Dichlorophenyl)-3-(1-(3-(5,6,7,8-tetrahydro-1,8-naphthyridin-2-yl)propyl)-1H-pyrazol-4-yl)propanoic acid]	7.57
O=C(O)CC(c1cnc2ccccc2n1)n1ccc(CCCc2ccc3c(n2)NCCC3)n1 (racemic) [Example 28, (±)-3-(Quinoxalin-2-yl)-3-(3-(3-(5,6,7,8-tetrahydro-1,8-naphthyridin-2-yl)propyl)-1H-pyrazol-1-yl)propanoic acid]	5.26
O=C(O)CC(c1cnc2nccnc2c1)n1ccc(CCCc2ccc3c(n2)NCCC3)n1 (racemic) [Example 33, (±)-3-(Pyrido[2,3-b]pyrazin-7-yl)-3-(3-(3-(5,6,7,8-tetrahydro-1,8-naphthyridin-2-yl)propyl)-1H-pyrazol-1-yl)propanoic acid]	5.55
COc1ncc(C(CC(=O)O)n2ccc(CCCc3ccc4c(n3)NCCC4)n2)cn1 (racemic) [Example 34, (±)-3-(2-Methoxypyrimidin-5-yl)-3-(3-(3-(5,6,7,8-tetrahydro-1,8-naphthyridin-2-yl)propyl)-1H-pyrazol-1-yl)propanoic acid]	8.00
O=C(O)CC(c1cnc2c(c1)OCCO2)n1ccc(CCCc2ccc3c(n2)NCCC3)n1 (racemic) [Example 35, (±)-3-(2,3-Dihydro-[1,4]dioxino[2,3-b]pyridin-7-yl)-3-(3-(3-(5,6,7,8-tetrahydro-1,8-naphthyridin-2-yl)propyl)-1H-pyrazol-1-yl)propanoic acid]	7.77
COc1ccc(C(CC(=O)O)n2ccc(CCCc3ccc4c(n3)NCCC4)n2)cc1F (racemic) [Example 49, (±)-3-(3-Fluoro-4-methoxyphenyl)-3-(3-(3-(5,6,7,8-tetrahydro-1,8-naphthyridin-2-yl)propyl)-1H-pyrazol-1-yl)propanoic acid]	7.62
O=C(O)CC(c1cnc(N2CCC2)nc1)n1ccc(CCCc2ccc3c(n2)NCCC3)n1 (racemic) [Example 50, (±)-3-(2-(Azetidin-1-yl)pyrimidin-5-yl)-3-(3-(3-(5,6,7,8-tetrahydro-1,8-naphthyridin-2-yl)propyl)-1H-pyrazol-1-yl)propanoic acid]	8.19
O=C(O)CC(c1cnc(N2CCC2)nc1)n1nccc1CCCc1ccc2c(n1)NCCC2 (racemic) [Example 53, (±)-3-(2-(Azetidin-1-yl)pyrimidin-5-yl)-3-(5-(3-(5,6,7,8-tetrahydro-1,8-naphthyridin-2-yl)propyl)-1H-pyrazol-1-yl)propanoic acid]	6.85
COc1ccc(C(CC(=O)O)n2ccc(CCCc3ccc4c(n3)NCCC4)n2)nn1 (racemic) [Example 57, (±)-3-(6-Methoxypyridazin-3-yl)-3-(3-(3-(5,6,7,8-tetrahydro-1,8-naphthyridin-2-yl)propyl)-1H-pyrazol-1-yl)propanoic acid]	7.29
COc1ccc(C(CC(=O)O)n2nccc2CCCc2ccc3c(n2)NCCC3)nn1 (racemic) [Example 58, (±)-3-(6-Methoxypyridazin-3-yl)-3-(5-(3-(5,6,7,8-tetrahydro-1,8-naphthyridin-2-yl)propyl)-1H-pyrazol-1-yl)propanoic acid]	5.68
COc1cnc(C(CC(=O)O)n2ccc(CCCc3ccc4c(n3)NCCC4)n2)cn1 (racemic) [Example 59, (±)-3-(5-Methoxypyrazin-2-yl)-3-(3-(3-(5,6,7,8-tetrahydro-1,8-naphthyridin-2-yl)propyl)-1H-pyrazol-1-yl)propanoic acid]	6.96
COc1cnc(C(CC(=O)O)n2nccc2CCCc2ccc3c(n2)NCCC3)cn1 (racemic) [Example 60, (±)-3-(5-Methoxypyrazin-2-yl)-3-(5-(3-(5,6,7,8-tetrahydro-1,8-naphthyridin-2-yl)propyl)-1H-pyrazol-1-yl)propanoic acid]	6.30
COc1ccc(C(CC(=O)O)n2cc(CCCCc3ccc4c(n3)NCCC4)cn2)cn1 (racemic) [Example 61, (±)-3-(6-Methoxypyridin-3-yl)-3-(4-(4-(5,6,7,8-tetrahydro-1,8-naphthyridin-2-yl)butyl)-1H-pyrazol-1-yl)propanoic acid]	7.25
COc1ccc(C(CC(=O)O)n2cc(CCCc3ccc4c(n3)NCCC4)cn2)cn1 (racemic) [Example 62, (±)-3-(6-Methoxypyridin-3-yl)-3-(4-(3-(5,6,7,8-tetrahydro-1,8-naphthyridin-2-yl)propyl)-1H-pyrazol-1-yl)propanoic acid]	6.77
O=C(O)CC(c1cncc(N2CCCC2)c1)n1ccc(CCCc2ccc3c(n2)NCCC3)n1 (racemic) [Example 66, (±)-3-[5-(pyrrolidin-1-yl)pyridin-3-yl]-3-{3-[3-(5,6,7,8-tetrahydro-1,8-naphthyridin-2-yl)propyl]-1H-pyrazol-1-yl}propanoic acid]	7.68

The next lines start with the values.

pIC50	SMILES
7.82	COc1ccc(C(CC(=O)O)n2nccc2CCCc2ccc3c(n2)NCCC3)cc1F (racemic) [Example 71, (±)-3-(3-fluoro-4-methoxyphenyl)-3-{5-[3-(5,6,7,8-tetrahydro-1,8-naphthyridin-2-yl)propyl]-1H-pyrazol-1-yl}propanoic acid]
7.62	CN(C)C(=O)c1cncc(C(CC(=O)O)n2nccc2CCCc2ccc3c(n2)NCCC3)c1 (racemic) [Example 72, (±)-3-[5-(dimethylcarbamoyl)pyridin-3-yl]-3-{5-[3-(5,6,7,8-tetrahydro-1,8-naphthyridin-2-yl)propyl]-1H-pyrazol-1-yl}propanoic acid]
7.60	COc1cc(C(CC(=O)O)n2nccc2CCCc2ccc3c(n2)NCCC3)ccn1 (racemic) [Example 73, (±)-3-(2-methoxypyridin-4-yl)-3-{5-[3-(5,6,7,8-tetrahydro-1,8-naphthyridin-2-yl)propyl]-1H-pyrazol-1-yl}propanoic acid]
7.89	CN(C)C(=O)c1cncc(C(CC(=O)O)n2ccc(CCCc3ccc4c(n3)NCCC4)n2)c1 (racemic) [Example 74, (±)-3-[5-(dimethylcarbamoyl)pyridin-3-yl]-3-{3-[3-(5,6,7,8-tetrahydro-1,8-naphthyridin-2-yl)propyl]-1H-pyrazol-1-yl}propanoic acid]
7.55	O=C(O)CC(c1cc(Cl)cc(Cl)c1)n1nccc1CCCc1ccc2c(n1)NCCC2 (racemic) [Example 75, (±)-3-(3,5-dichlorophenyl)-3-{5-[3-(5,6,7,8-tetrahydro-1,8-naphthyridin-2-yl)propyl]-1H-pyrazol-1-yl}propanoic acid]
7.26	O=C(O)CCCNc1cc(C(CC(=O)O)n2ccc(CCCc3ccc4c(n3)NCCC4)n2)ccn1 (racemic) [Example 76, (±)-4-{[4-(2-carboxy-1-{3-[3-(5,6,7,8-tetrahydro-1,8-naphthyridin-2-yl)propyl]-1H-pyrazol-1-yl}ethyl)pyridin-2-yl]amino}butanoic acid]
7.74	COc1ncc(C(CC(=O)O)n2nccc2CCCc2ccc3c(n2)NCCC3)cc1F (racemic) [Example 77, (±)-3-(5-fluoro-6-methoxypyridin-3-yl)-3-{5-[3-(5,6,7,8-tetrahydro-1,8-naphthyridin-2-yl)propyl]-1H-pyrazol-1-yl}propanoic acid]
